The values that follow come from patent publication US8613931B2, “Compounds for treating beta-amyloidoses” (Affiris AG, priority 2008, dated 2013).

Experiment [1] concerns monoclonal antibody MV-001. Nature of the experiment: In vitro binding assay (ELISA), parental antibody MV-001. On the set-up: species or system C57/Bl6 mice. Particulars: peptide-BSA on ELISA plate; OD halfmax, dilution factor 1:X of parental AB MV-001. How it is done: 1. In vitro binding assay (ELISA)
Peptides derived from Phage Display as well as variants thereof were coupled to BSA and bound to ELISA plates (1 μM; as indicated in the respective figures) and subsequently incubated with the monoclonal antibody that was used for the screening procedure to analyse binding capacity of identified peptides.
Background: ELISA stands for enzyme-linked immunosorbent assay.

The test system of experiment [2] is monoclonal antibody MV-001. The experiment is described as follows: In vitro inhibition assay (ELISA), MV-001 binding to original epitope. On the set-up: species or system C57/Bl6 mice. To be noted: OD at 10 μg peptide compared to original peptide. The protocol:
2. In vitro inhibition assay (ELISA)
Different amounts of peptides (concentrations ranging from 10 μg to 0.08 μg; serial dilutions), derived from Phage Display were incubated with the monoclonal antibody that was used for the screening procedure. Peptides diminishing subsequent binding of the antibody to the original epitope coated on ELISA plates were considered as inhibiting in this assay.

Experiment [3] concerns full length and/or truncated and modified forms of Aβ. The experiment is described as follows: In vivo characterisation of mimotopes: detection of Aβ/truncated/modified forms. Particulars: MV-001 derived mimotopes; mimotope vaccination. More on the design: species or system C57/bl6 mice; key: +: All peptides listed in Table 4 mount specific immune reactions against full length and/or truncated and modified forms of Aβ or fragments thereof. How it is done: Inhibiting as well as non-inhibiting peptides were coupled to KLH and injected into mice (wildtype C57/Bl6 mice; subcutaneous injection into the flank) together with an appropriate adjuvant (aluminium hydroxide). Animals were vaccinated 3-6 times in biweekly intervals and sera were taken biweekly as well. Titers to injected peptides, as well as to an irrelevant peptide were determined with every serum. Furthermore, titers against the recombinant human Aβ protein, and against original peptides were determined respectively. In general sera were analysed by reaction against peptides coupled to Bovine Serum Albumin (BSA) and recombinant full length proteins which were immobilised on ELISA plates. Titers were determined using anti mouse IgG specific antibodies. For detailed results see FIGS. 6, 7 and 8 respectively.
Female C57/bl6 mice, 5-6 mice per group, were subcutaneously immunized with 30 μg peptide coupled to KLH. Control groups were administered original epitope-KLH conjugates respectively. As adjuvant alum was used (always 1 mg per mouse). […] The in vitro ELISA assay to determine the antibody titer was performed with sera of single mice after each vaccination in a two week interval (see FIGS. 6 and 7 respectively). The wells of the ELISA plate were coated with mimotope-BSA conjugate and an irrelevant peptide-BSA conjugate (negative control). The positive control was performed by reaction of the parental antibody with the respective mimotope-BSA conjugate. The detection was performed with anti-mouse IgG. Additionally, recombinant proteins were immobilised on ELISA plates and sera reacted accordingly. FIGS. 6 to 8 show representative examples for assays used to characterise mimotopes in vivo.

Experiment [4] addresses monoclonal antibody MV-001. The experiment is described as follows: inhibition ELISA; competitor: coated original epitope p4371. Particulars: for Inhibition Capacity: scale: code.
The target of experiment [5] is monoclonal antibody MV-001. The experiment is described as follows: ELISA, peptide-BSA coated, MV-001. To be noted: for Binding Capacity: scale: code.

Regarding NWFPHPC [p4392], in experiment [1], the “Binding Capacity” value was 1 (weak binding :<4000). The “Inhibition Capacity” value in experiment [2] is 1 (Weaker than original epitope (OD of 10 μg peptide below 3 times of original peptide)). As for EEFKYSC [p4393], the “Inhibition Capacity” value in experiment [2] is recorded as 1 (Weaker than original epitope (OD of 10 μg peptide below 3 times of original peptide)). Same read-out and setting: next, SHFRHGC [p4389]: 1 (Weaker than original epitope (OD of 10 μg peptide below 3 times of original peptide)); TSFRHGC [p4382]: 1 (Weaker than original epitope (OD of 10 μg peptide below 3 times of original peptide)). In the case of SPNQFRHC [p4707], the “Detection of Aβ/truncated/modified forms” value in experiment [3] was “+”. The “Binding Capacity” value in experiment [1] is listed as 3 (strong binding :>20000). Further, in experiment [2], the “Inhibition Capacity” value is given as 1 (Weaker than original epitope (OD of 10 μg peptide below 3 times of original peptide)). In the same order, the values of ADHDFRHC [p4740] are “+”, 3 (strong binding :>20000) and 1 (Weaker than original epitope (OD of 10 μg peptide below 3 times of original peptide)). Take SAFRHHC [p4387]: the “Inhibition Capacity” value in experiment [2] is listed as 1 (Weaker than original epitope (OD of 10 μg peptide below 3 times of original peptide)). As to YEFRHAQC [p4748], the “Detection of Aβ/truncated/modified forms” value in experiment [3] is listed as “+”. For the same molecule, the “Binding Capacity” value in experiment [1] is on record as 3 (strong binding :>20000). Consider SEFKHC [p4801], for which the “Binding Capacity” value in experiment [1] is listed as 3 (strong binding :>20000). For the same molecule, in experiment [2], the “Inhibition Capacity” value was 1 (Weaker than original epitope (OD of 10 μg peptide below 3 times of original peptide)). Consider SQFRHYC [p4385], for which the “Detection of Aβ/truncated/modified forms” value in experiment [3] is reported as “+”. In addition, the “Inhibition Capacity” value in experiment [2] is reported as 1 (Weaker than original epitope (OD of 10 μg peptide below 3 times of original peptide)). In the case of QSEFKHWC [p4738], the “Detection of Aβ/truncated/modified forms” value in experiment [3] is given as “+”. Also, the “Binding Capacity” value in experiment [1] was 3 (strong binding :>20000). In addition, the “Inhibition Capacity” value in experiment [2] is reported as 1 (Weaker than original epitope (OD of 10 μg peptide below 3 times of original peptide)). LPFRHGC [p4388]: the “Inhibition Capacity” value in experiment [2] is recorded as 1 (Weaker than original epitope (OD of 10 μg peptide below 3 times of original peptide)). Regarding TSVFRHC [p4383], the “Detection of Aβ/truncated/modified forms” value in experiment [3] was “+”. In addition, in experiment [1], the “Binding Capacity” value is given as 3 (strong binding :>20000). Further, the “Inhibition Capacity” value in experiment [2] is 1 (Weaker than original epitope (OD of 10 μg peptide below 3 times of original peptide)). On to QFKHDLC [p4391], for which the “Inhibition Capacity” value in experiment [2] is on record as 1 (Weaker than original epitope (OD of 10 μg peptide below 3 times of original peptide)). For EELRHSVC [p4746], in experiment [1], the “Binding Capacity” value was 3 (strong binding :>20000). Further, the “Inhibition Capacity” value in experiment [2] is 1 (Weaker than original epitope (OD of 10 μg peptide below 3 times of original peptide)). In the case of ELFKHHLC [p4714], the “Detection of Aβ/truncated/modified forms” value in experiment [3] was “+”. The “Binding Capacity” value in experiment [1] is 3 (strong binding :>20000). For the molecule HEFRHC [p4803], the “Binding Capacity” value in experiment [1] is given as 3 (strong binding :>20000). Also, the “Inhibition Capacity” value in experiment [2] is on record as 2 (strong inhibition (as original epitope; OD of 10 μg peptide below 2 times of original peptide)). The like results for CSEFKH [p4800] were, in that order, 3 (strong binding :>20000) and 2 (strong inhibition (as original epitope; OD of 10 μg peptide below 2 times of original peptide)).

In the case of DGLLFKHC [p4741], the “Binding Capacity” value in experiment [1] is reported as 3 (strong binding :>20000). Further, the “Inhibition Capacity” value in experiment [2] is reported as 1 (Weaker than original epitope (OD of 10 μg peptide below 3 times of original peptide)). TPFRHTC [p4384]: the “Inhibition Capacity” value in experiment [2] is listed as 1 (Weaker than original epitope (OD of 10 μg peptide below 3 times of original peptide)). Turning to QDFRHYC [p4380], in experiment [2], the “Inhibition Capacity” value was 1 (Weaker than original epitope (OD of 10 μg peptide below 3 times of original peptide)). For the molecule CHEFRH [p4802], the “Binding Capacity” value in experiment [1] is reported as 3 (strong binding :>20000). Further, in experiment [2], the “Inhibition Capacity” value was 2 (strong inhibition (as original epitope; OD of 10 μg peptide below 2 times of original peptide)).

B1: p4388 (peptide)
peptide: LPFRHGC
In experiment [4], B1 yielded an Inhibition Capacity (code (weaker than original epitope)) of 1. For the same molecule, the Binding Capacity in experiment [5] amounted to 2.

B2: p4738 (peptide)
peptide: QSEFKHWC
For the molecule B2, in experiment [4], the Inhibition Capacity (code (weaker than original epitope)) was 1. This molecule had a Binding Capacity in experiment [5] of 3.

B3: p4386 (peptide)
peptide: LMFRHNC
In turn, B3 showed an Inhibition Capacity (code (weaker than original epitope)) in experiment [4] of 1. Besides, the Binding Capacity in experiment [5] came to 3.

B4: p4730 (peptide)
peptide: DEHPFRHC
The molecule B4 gave an Inhibition Capacity (code (weaker than original epitope)) in experiment [4] of 1. This molecule had a Binding Capacity in experiment [5] of 3.

B5: p4725 (peptide)
peptide: THTDFRHC
On to B5, for which the Inhibition Capacity (code (weaker than original epitope)) in experiment [4] is 1. The Binding Capacity in experiment [5] is 3.

B6: p4385 (peptide)
peptide: SQFRHYC
Regarding B6, the Inhibition Capacity (code (weaker than original epitope)) in experiment [4] stood at 1. This molecule also gave a Binding Capacity in experiment [5] of 2.

B7: p4800 (peptide)
peptide: CSEFKH
On to B7, for which the Inhibition Capacity in experiment [4] was determined as 2. Moreover, the Binding Capacity in experiment [5] was 3.

B8: p4393 (peptide)
peptide: EEFKYSC
Molecule B8 yielded an Inhibition Capacity (code (weaker than original epitope)) in experiment [4] of 1. The same molecule registered a Binding Capacity in experiment [5] of 2.

B9: p4387 (peptide)
peptide: SAFRHHC
Consider B9, for which the Inhibition Capacity (code (weaker than original epitope)) in experiment [4] turned out to be 1. Also, the Binding Capacity in experiment [5] was 2.

B10: p4740 (peptide)
peptide: ADHDFRHC
Regarding B10, the Inhibition Capacity (code (weaker than original epitope)) in experiment [4] stood at 1. Besides, the Binding Capacity in experiment [5] was 3.

B11: p4392 (peptide)
peptide: NWFPHPC
B11 registered an Inhibition Capacity (code (weaker than original epitope)) in experiment [4] of 1. The molecule further had a Binding Capacity (code (weak binding, OD halfmax 1:<4000)) in experiment [5] of 1.

B12: p4801 (peptide)
peptide: SEFKHC
In turn, B12 had an Inhibition Capacity (code (weaker than original epitope)) in experiment [4] of 1. The same molecule gave a Binding Capacity in experiment [5] of 3.

B13: p4715 (peptide)
peptide: TLHEFRHC
Consider B13, for which, in experiment [4], the Inhibition Capacity amounted to 2. The molecule also returned a Binding Capacity in experiment [5] of 3.

B14: p4390 (peptide)
peptide: ILFRHGC
Turning to B14, in experiment [4], the Inhibition Capacity (code (weaker than original epitope)) is 1. In experiment [5], the Binding Capacity turned out to be 3.

B15: p4741 (peptide)
peptide: DGLLFKHC
B15 had an Inhibition Capacity (code (weaker than original epitope)) in experiment [4] of 1. Further, the Binding Capacity in experiment [5] worked out at 3.

B16: p4389 (peptide)
peptide: SHFRHGC
Regarding B16, the Inhibition Capacity (code (weaker than original epitope)) in experiment [4] turned out to be 1. Moreover, the Binding Capacity in experiment [5] stood at 2.

B17: p4707 (peptide)
peptide: SPNQFRHC
Take B17: the Inhibition Capacity (code (weaker than original epitope)) in experiment [4] amounted to 1. The molecule also showed a Binding Capacity in experiment [5] of 3.

B18: p4391 (peptide)
peptide: QFKHDLC
As to B18, in experiment [4], the Inhibition Capacity (code (weaker than original epitope)) worked out at 1. Moreover, the Binding Capacity in experiment [5] is 2.

B19: p4746 (peptide)
peptide: EELRHSVC
In the case of B19, the Inhibition Capacity (code (weaker than original epitope)) in experiment [4] turned out to be 1. This molecule gave a Binding Capacity in experiment [5] of 3.

B20: p4753 (peptide)
peptide: TEFRHKAC
B20: the Inhibition Capacity in experiment [4] worked out at 2. This molecule returned a Binding Capacity in experiment [5] of 3.
